This test relates to STZ-induced hyperglycemic rats. The experiment in a line: Effect on STZ-induced hyperglycemia in rats (blood glucose level). It is filed as in vivo, rat. On the procedure: Male Sprague-Dawley rats (S.D. 180 g) were used in the experiments described below. The animals lived in individual metabolism cages with free access to food and water, while food and body weight were monitored daily. Peripheral blood samples (approximately 10 μl) were obtained from the tail vein of the animals. The blood glucose levels were measured by using Accu-Check Blood Glucose Meter (Roche Diagnosetics Corporation, IN). Beta cell function was evaluated once every two days over a 2-week period by an individual unaware of the treatment group. Animals were evaluated separately for blood glucose level, food intake and body weight. The endpoint check was pancreatic insulin content and pancreatic beta cell number.
Streptozotocin (STZ) was used to chemically induce damage in pancreatic function in order to create a hyperglycemic state in the animals. Eight-week old male Sprague-Dawley rats (200.00 g±10 g) were injected with STZ by intraperitoneal (i.p.) (65 mg/kg body weight (BW)) to create hyperglycemic animals (24 to 48 hours). Blood glucose levels were monitored daily. Onset of hyperglycemia occurred usually about 24 to 48 hours after STZ administration.
[…] the seventh day or on the third day after STZ administration, which allowed for examination of the TRH/TRH analog treatment and the degree of pancreatic damage in the diabetic animal. Again, food intake, body weight and blood glucose levels of each of the animals were monitored. When hyperglycemia was determined to be reversed by TRH/TRH analog, the animal was sacrificed. Blood samples were collected for insulin assay and the pancreas and muscles were collected for further pathological and physiological tests.
The figures shown in the tables are blood glucose levels (mg/dL; i.e., milligrams of glucose per deciliter of blood).

[1] abbreviates: Table 1, rats, STZ + compound i.p., Day 1.
Where [2] appears, read: Table 1, rats, STZ + compound i.p., Day 2.
The mark [3] stands for this setting: Table 1, rats, STZ + compound i.p., Day 4.
Setting [4] is: Table 1, rats, STZ + compound i.p., Day 9.
The mark [5] stands for this setting: Table 1, rats, STZ + compound i.p., Day 15.
Setting [6] is: Table 1, rats, STZ + compound i.p., Day 22.
[7] abbreviates: Table 1, rats, STZ + compound i.p., Day 29.
[8] abbreviates: Table 1, rats, STZ + compound i.p., Day 39.
Where [9] appears, read: Table 1, rats, STZ + compound i.p., Day 43.
Where [10] appears, read: Table 1, rats, STZ + compound i.p., Day 50.
The mark [11] stands for this setting: Table 1, rats, STZ + compound i.p., Day 53.
The mark [12] stands for this setting: Table 1, rats, STZ + compound i.p., Day 56.
Where [13] appears, read: Table 1, rats, STZ + compound i.p., Day 60.
Where [14] appears, read: Table 1, rats, STZ + compound i.p., Day 64.

Where a SMILES comes first, the peptide text is derived from it. [ ]: non-standard residue; d: D form. pGlu = O=C1CC[CH](C(=O)O)N1

Consider `CN(N=O)C(=O)N[C@@H]1[C@@H](O)[C@H](O)[C@@H](CO)O[C@@H]1O` [S, streptozotocin, reference compound], for which the blood glucose level reads like this: (Table 1, rats, STZ alone, Day 1) 99.8 mg/dL; (Table 1, rats, STZ alone, Day 2) 313.2 mg/dL; (Table 1, rats, STZ alone, Day 4) 433.6 mg/dL; (Table 1, rats, STZ alone, Day 9) 320 mg/dL; (Table 1, rats, STZ alone, Day 15) 393.8 mg/dL; (Table 1, rats, STZ alone, Day 22) 463.8 mg/dL. The blood glucose level is 522.4 mg/dL (Table 1, rats, STZ alone, Day 29); 537.2 mg/dL (Table 1, rats, STZ alone, Day 39); 466.8 mg/dL (Table 1, rats, STZ alone, Day 43); 485 mg/dL (Table 1, rats, STZ alone, Day 50); 460 mg/dL (Table 1, rats, STZ alone, Day 53); 453 mg/dL (Table 1, rats, STZ alone, Day 56). For the same compound, the blood glucose level by setting is: (Table 1, rats, STZ alone, Day 60) 542 mg/dL; (Table 1, rats, STZ alone, Day 64) 482 mg/dL; (Table 2, rats, STZ alone, Day 1) 98 mg/dL; (Table 2, rats, STZ alone, Day 4) 103 mg/dL; (Table 2, rats, STZ alone, Day 7) 506 mg/dL; (Table 2, rats, STZ alone, Day 11) 494 mg/dL. For the same compound, the blood glucose level by setting is: (Table 2, rats, STZ alone, Day 15) 329 mg/dL; (Table 2, rats, STZ alone, Day 18) 432 mg/dL; (Table 2, rats, STZ alone, Day 21) 453 mg/dL; (Table 2, rats, STZ alone, Day 25) 480 mg/dL; (Table 2, rats, STZ alone, Day 28) 499 mg/dL; (Table 2, rats, STZ alone, Day 32) 529 mg/dL. Also, the blood glucose level reads like this: (Table 2, rats, STZ alone, Day 35) 499 mg/dL; (Table 2, rats, STZ alone, Day 39) 508 mg/dL; (Table 2, rats, STZ alone, Day 42) 549 mg/dL; (Table 2, rats, STZ alone, Day 46) 536 mg/dL; (Table 2, rats, STZ alone, Day 54) 500 mg/dL; (Table 2, rats, STZ alone, Day 61) 582 mg/dL. Moreover, the “onset of hyperglycemia after STZ administration” value (rats, STZ 65 mg/kg BW i.p.) was in the range of 24 to 48 h.
In the case of `NC(=O)CNC(=O)C1CCCN1C(=O)C(Cc1c[nH]cn1)NC(=O)C1CCC(=O)N1` (stereo not drawn) [Glp, Glp-His-Pro-Gly-NH2] ([pGlu]HPG-NH2; configuration not given here), the blood glucose level worked out at 103.8 mg/dL under setting [1]; 396 mg/dL under setting [2]; 446 mg/dL under setting [3]; 275 mg/dL under setting [4]; 348 mg/dL under setting [5]; 419 mg/dL under setting [6]. In addition, the blood glucose level is listed as 431 mg/dL under setting [7]; 448 mg/dL under setting [8]; 423 mg/dL under setting [9]; 416 mg/dL under setting [10]; 432 mg/dL under setting [11]; 400 mg/dL under setting [12]. For the same compound, the blood glucose level reads like this: under setting [13], 468 mg/dL; under setting [14], 421 mg/dL.
With `NC(=O)C1CCCN1C(=O)C(Cc1ccccc1)NC(=O)C1CCC(=O)N1` (stereo not drawn) [PheT, 1-{3-phenyl-2-[(5-oxo-pyrrolidine-2-carbonyl)-amino]-propionyl}-pyrrolidine-2-carboxylic acid amide] ([pGlu]-Phe-Pro-NH2; configuration not given here), the blood glucose level worked out at 105.8 mg/dL under setting [1]; 316.8 mg/dL under setting [2]; 419.8 mg/dL under setting [3]; 130.8 mg/dL under setting [4]; 234.4 mg/dL under setting [5]; 359.2 mg/dL under setting [6]. Moreover, the blood glucose level under setting [7] amounted to 407.2 mg/dL; the blood glucose level under setting [8] is on record as 434.8 mg/dL; the blood glucose level under setting [9] is 432 mg/dL; the blood glucose level under setting [10] is given as 478 mg/dL; the blood glucose level under setting [11] turned out to be 424 mg/dL; the blood glucose level under setting [12] amounted to 355 mg/dL. The blood glucose level is recorded as 381 mg/dL under setting [13] and 414 mg/dL under setting [14].

The record behind these values is US20080249028A1, “Thyrotropin-Releasing Hormone Analogs and Method of Use” (Roger Williams Hospital, priority 2005, published 2008).
